Reference: US20240120519A1, “NON-AQUEOUS REDOX FLOW BATTERIES” (ENI S.P.A., priority 2020, published 2024)
Read-outs that look alike come from different tables or passages of the source.

Tests used:
[1] = Cyclic voltammetry measurements (oxidation-reduction potentials); type: physicochemical; details: for E°′ ACN (V vs Fc/Fc^+): acetonitrile; for E°′ ACN (V vs Fc/Fc^+) / E°′ PC (V vs Fc/Fc^+): 0.1 M TBABF4, glassy carbon working electrode, 25° C., normalised to Fc/Fc^+; for E°′ PC (V vs Fc/Fc^+): propylene carbonate
Protocol: Cyclic voltammetry measurements were carried out in a hemi-cell with a three-electrode configuration, with glassy carbon working electrode, platinum counter electrode and silver/silver chloride (Ag/AgCl) reference electrode. The oxidation-reduction potentials E°′Ox/Red were derived from the position of the forward peak (Epf) and the return peak (Epr):
and the values were normalised with respect to the intersolvent ferrocene/ferrocenium (Fc/Fc^+) couple.
Evaluations were carried out on an Autolab PGSTAT 128N analytical instrument at scan rates of 10, 20, 50, 70, 100, and 200 mV/s. All evaluations were carried out in triplicate at room temperature (25° C.). For the purpose, use was made of solutions containing: • benzothiadiazole (1) (Aldrich) (5×10^−3 M) and tetrabutylammonium tetrafluoro-borate (TBABF4) (Aldrich) (0.1 M) in acetonitrile (Aldrich) (non-aqueous liquid negative electrolyte of the negative compartment) (BTD); • benzothiadiazole (1) (Aldrich) (5×10^−3 M) and tetrabutylammonium tetrafluoro-borate (TBABF4) (Aldrich) (0.1 M) in propylene carbonate (Aldrich) (non-aqueous liquid negative electrolyte of the negative compartment) (BTD); • 4,7-di[2-(propyloxycarbonylethyloxy)phenyl]-benzothiadiazole [compound (2) obtained in Example 7] (5×10^−3 M) and tetrabutylammonium tetrafluoroborate (TBABF4) (Aldrich) (0.1 M) in acetonitrile (Aldrich) (non-aqueous liquid negative electrolyte of the negative compartment) (BTD); • 4,7-di[2-(propyloxycarbonylethyloxy)phenyl]-benzothiadiazole [compound (2) obtained in Example 7] (5×10^−3 M) and tetrabutylammonium tetrafluoroborate (TBABF4) (Aldrich) (0.1 M) in propylene carbonate (Aldrich) (non-aqueous liquid negative electrolyte of the negative compartment) [BTD (2)]; • 4,7-di[2-methoxycarbonylethyloxy)phenyl]-benzothiadiazole [compound (3) obtained in Example 1] (5×10^−3 M) and tetrabutylammonium tetrafluoroborate (TBABF4) (Aldrich) (0.1 M) in acetonitrile (Aldrich) (non-aqueous liquid negative electrolyte of the negative compartment) [BTD (3)]; • 4,7-di[2-(methoxycarbonylethyloxy)phenyl]-benzothiadiazole [compound (3) obtained in Example 1] (5×10^−3 M) and tetrabutylammonium tetrafluoroborate (TBABF4) (Aldrich) (0.1 M) in propylene carbonate (Aldrich) (non-aqueous liquid negative electrolyte of the negative compartment) [BTD (3)]; • 4,7-di[2-(2-(2-methoxyethoxy)ethoxy)phenyl]-benzothiadiazole [compound (4) obtained in Example 3] (5×10^−3 M) and tetrabutylammonium tetrafluoroborate (TBABF4) (Aldrich) (0.1 M) in acetonitrile (Aldrich) (non-aqueous liquid negative electrolyte of the negative compartment) [BTD (4)]; • 4,7-di[2-(2-(2-methoxyethoxy)ethoxy)phenyl]-benzothiadiazole [compound (4) obtained in Example 3] (5×10^−3 M) and tetrabutylammonium tetrafluoroborate (TBABF4) (Aldrich) (0.1 M) in propylene carbonate (Aldrich) (non-aqueous liquid negative electrolyte of the negative compartment) [BTD (4)]; • 4,7-di[2,6-di(propyloxycarbonylethyloxy)phenyl]-benzothiadiazole [compound (5) obtained in Example 4] (5×10^−3 M) and tetrabutylammonium tetrafluoroborate (TBABF4) (Aldrich) (0.1 M) in acetonitrile (Aldrich) (non-aqueous liquid negative electrolyte of the negative compartment) [BTD (5)]; • 4,7-di[2,6-di(propyloxycarbonylethyloxy)phenyl]-benzothiadiazole [compound (5) obtained in Example 4] (5×10^−3 M) and tetrabutylammonium tetrafluoroborate (TBABF4) (Aldrich) (0.1 M) in propylene carbonate (Aldrich) (non-aqueous liquid negative electrolyte of the negative compartment) [BTD (5)]; • 4,7-di[2,5-di(propyloxycarbonylethyloxy)phenyl]-benzothiadiazole [compound (6) obtained in Example 5] (5×10^−3 M) and tetrabutylammonium tetrafluoroborate (TBABF4) (Aldrich) (0.1 M) in acetonitrile (Aldrich) (non-aqueous liquid negative electrolyte of the negative compartment) [BTD (6)]; • 4,7-di[2,5-di(propyloxycarbonylethyloxy)phenyl]-benzothiadiazole [compound (6) obtained in Example 5] […]

[2] = Non-aqueous redox flow battery (RFB) charge/discharge tests
Protocol: Charge-discharge tests were carried out using an electrochemical cell with a Teflon® membrane (DuPont), having a surface area equal to approximately 0.8 cm^2, placed between two platinum electrodes (Methrohm) having a surface area equal to approximately 0.07 cm^2. The electrochemical cell was then assembled and sealed in a container containing argon (Ar).
For the purpose, use was made of solutions containing: • 4,7-di[2-(propyloxycarbonylethyloxy)phenyl]-benzothiadiazole [Compound (2) obtained in Example 7]: (1×10^−3 M) and tetrabutylammonium tetrafluoroborate (TBABF4) (Aldrich) (0.1 M) in acetonitrile (Aldrich) (non-aqueous liquid negative electrolyte of the negative compartment), degassed with argon (Ar) and subjected to electrolysis in order to obtain benzothiadiazole in reduced form [(BTD (2)·^−)]; • tetrakisacetonitrile copper(I) tetrafluoroborate [Cu(NCCH3)4·BF4] (1×10^−3 M) and tetrabutylammonium tetrafluoroborate (TBABF4) (Aldrich) (0.1 M) in acetonitrile (Aldrich) (non-aqueous liquid positive electrolyte of the positive compartment) (Cu triflate), degassed with argon (Ar).
6 ml of the above solutions were introduced into the respective compartments.
The test was carried out using a potentiostat/galvanostat Autolab PGSTAT 128N (Metrohom) at room temperature (25° C.).
Charge and discharge curves were carried out to assess the performance of the electrolytes in the cell. […]

[3] = Stability tests in cyclic voltammetry; type: physicochemical; details: 1×10^−3 M, 0.1 M TBABF4 in acetonitrile
Protocol: Stability tests were carried out using the same electrochemical cell as in Example 9.
For the purpose, use was made of solutions containing: • 4,7-di[2-(propyloxycarbonylethyloxy)phenyl]-benzothiadiazole [Compound (2) obtained in Example 2 or 7] (1×10^−3 M) and tetrabutylammonium tetrafluoroborate (TBABF4) (Aldrich) 0.1 M in acetonitrile (Aldrich) (non-aqueous liquid negative electrolyte of the negative compartment).

Row | E°′ ACN (V vs Fc/Fc^+) [1] | E°′ PC (V vs Fc/Fc^+) [1] | potential difference (E°) in open circuit ([1]; solution in acetonitrile, E°=(E°1)−(E°2) against Cu triflate (0.62 V)) | stability over 150 successive redox cycles [3] | SMILES | stability during charge/discharge (oxidation-reduction cycles) [2] | stability during charge/discharge (oxidation-reduction cycles) ([2]; 1×10^−3 M in acetonitrile, 0.1 M TBABF4, Teflon membrane, charge 2.5 V, discharge 0.5 V, 240 seconds each, 25° C.)
1 | −2.00 V vs Fc/Fc^+ | −1.95 V vs Fc/Fc^+ | – | – | CCOC(=O)CCCOc1cccc(OCCCC(=O)OCC)c1-c1ccc(-c2c(OCCCC(=O)OCC)cccc2OCCCC(=O)OCC)c2nsnc12 [Compound (5)] | – | –
2 | −1.88 V vs Fc/Fc^+ | −1.83 V vs Fc/Fc^+ | – | – | CCOC(=O)CCCOc1ccc(OCCCC(=O)OCC)c(-c2ccc(-c3cc(OCCCC(=O)OCC)ccc3OCCCC(=O)OCC)c3nsnc23)c1 [Compound (6)] | – | –
3 | −1.93 V vs Fc/Fc^+ | −1.88 V vs Fc/Fc^+ | – | – | CCOC(=O)CCCOc1ccc(-c2ccc(-c3ccc(OCCCC(=O)OCC)cc3OCCCC(=O)OCC)c3nsnc23)c(OCCCC(=O)OCC)c1 [Compound (7)] | – | –
4 | −1.90 V vs Fc/Fc^+ | −1.85 V vs Fc/Fc^+ | – | – | COCCOCCOc1ccccc1-c1ccc(-c2ccccc2OCCOCCOC)c2nsnc12 [Compound (4), 4,7-di[2-(2-(2-methoxyethoxy)ethoxy)phenyl]-benzothiadiazole] | – | –

More lines, now with the values behind:

Row | SMILES | E°′ ACN (V vs Fc/Fc^+) [1] | E°′ PC (V vs Fc/Fc^+) [1] | potential difference (E°) in open circuit ([1]; solution in acetonitrile, E°=(E°1)−(E°2) against Cu triflate (0.62 V)) | stability over 150 successive redox cycles [3] | stability during charge/discharge (oxidation-reduction cycles) [2] | stability during charge/discharge (oxidation-reduction cycles) ([2]; 1×10^−3 M in acetonitrile, 0.1 M TBABF4, Teflon membrane, charge 2.5 V, discharge 0.5 V, 240 seconds each, 25° C.)
5 | CCOC(=O)CCCOc1ccccc1-c1ccc(-c2ccccc2OCCCC(=O)OCC)c2nsnc12 [Compound (2)] | −1.91 V vs Fc/Fc^+ | −1.84 V vs Fc/Fc^+ | 2.53 V | the cycles are superimposable | good stability during oxidation-reduction cycles | –
6 | CCOC(=O)COc1ccccc1-c1ccc(-c2ccccc2OCC(=O)OCC)c2nsnc12 [Compound (3)] | −1.86 V vs Fc/Fc^+ | −1.82 V vs Fc/Fc^+ | – | – | – | –
7 | O=S(=O)([O-])C(F)(F)F.O=S(=O)([O-])C(F)(F)F.[Cu+2] [Cu triflate, copper(II) trifluoromethanesulphonate, reference compound] | 0.62 V vs Fc/Fc^+ | 0.43 V vs Fc/Fc^+ | – | – | – | –
8 | CC#N.CC#N.CC#N.CC#N.F[B-](F)(F)F.[Cu+] [Cu, tetrakisacetonitrile copper(I) tetrafluoroborate, reference compound] | – | – | – | – | – | good stability during oxidation-reduction cycles
